Source: patent US20130298921A1, “INHALER FOR SMOKING CESSATION” (Rock Creek Pharmaceuticals, Inc., priority 2011, published 2013)
Like-named read-outs stand apart in the source and are kept apart here.

What was measured:
[1] = tested on: nicotine self-administration in rhesus monkeys; assay: nicotine self-administration in nonhuman primate model (second-order schedule, nicotine- and food-maintained responding); format: in vivo, rhesus monkeys (Macaca Mulatta); conditions: for food-maintained responding (change with increasing anatabine doses): anatabine 0.18-3.2 mg/kg IM; for nicotine self-administration: single doses of anatabine 0.18-3.2 mg/kg IM, nicotine training dose 0.01 mg/kg/inj (base)
Source text: Food was available during three 1-hour sessions each day (7 AM, 3 PM and 7 PM).
Food pellets were limited to 25 per session or 100 per day.
Nicotine doses are expressed as the base.

[2] = tested on: nicotine self-administration by rats; assay: nicotine self-administration by rats; format: in vivo; conditions: anatabine 1.8 and 3.2 mg/kg IP; peak reinforcing nicotine doses 0.003 and 0.01 mg/kg/inj; P<0.05-0.001; FIG. 6
α3/β4 nAChR channel = biological target: T1, α3/β4 nAChR channel (Homo sapiens, UniProt P30926+P32297); assay: Fluo-8 calcium FLIPR assay, cloned nAChR channels in mammalian cells; format: cell-based
T1 construct: expressed in transfected cells

[3] = tested on: precipitated nicotine withdrawal; assay: precipitated nicotine withdrawal; format: in vivo, rodents; conditions: anatabine administration
[4] = tested on: nicotine self-administration by rats; conditions: anatabine 1.8-5.6 mg/kg, Caine et al., 2013, cited from earlier work
α7 nAChR channel = biological target: T2, α7 nAChR channel (Homo sapiens, UniProt P36544); assay: Fluo-8 calcium FLIPR assay, cloned nAChR channels in mammalian cells; format: cell-based; conditions: for agonist character / maximum level of activation: agonist assay
T2 construct: expressed in transfected cells

α4/β2 nAChR channel = biological target: T3, α4/β2 nAChR channel (Homo sapiens, UniProt P17787+P43681); assay: as above; format: cell-based
T3 construct: expressed in transfected cells

[5] = tested on: rodents trained to self-administer nicotine; assay: reward in rodents trained to self-administer nicotine; format: in vivo
[6] = tested on: Hippocampus (rat hippocampal homogenates); assay: binding relative to nicotine in rat hippocampal homogenates; conditions: reference set to 1.0
Source text: (§1) This example describes a study conducted on anatabine along with other common nicotinic alkaloids in rat frontal and hippocampal homogenates.

[7] = tested on: Frontal cortex (rat frontal homogenates); assay: binding relative to nicotine in rat frontal homogenates; conditions: reference set to 1.0
Source text: as §1

[8] = antagonist and positive allosteric modulator modes

T1 sequence (P32297 32-505): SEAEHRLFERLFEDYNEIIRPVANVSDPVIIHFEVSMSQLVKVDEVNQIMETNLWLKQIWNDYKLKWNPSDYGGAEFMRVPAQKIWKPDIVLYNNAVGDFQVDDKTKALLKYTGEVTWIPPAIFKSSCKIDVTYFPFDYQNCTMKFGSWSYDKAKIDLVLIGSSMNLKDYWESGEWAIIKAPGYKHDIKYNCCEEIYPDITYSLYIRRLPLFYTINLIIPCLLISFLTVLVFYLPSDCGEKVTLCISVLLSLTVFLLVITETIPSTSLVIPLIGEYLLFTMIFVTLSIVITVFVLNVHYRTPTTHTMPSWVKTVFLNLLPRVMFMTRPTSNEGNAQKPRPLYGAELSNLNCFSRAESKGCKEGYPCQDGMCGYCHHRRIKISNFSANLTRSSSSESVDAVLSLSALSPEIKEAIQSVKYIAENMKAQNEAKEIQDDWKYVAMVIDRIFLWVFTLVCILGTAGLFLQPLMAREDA
T1 sequence (P30926 22-498): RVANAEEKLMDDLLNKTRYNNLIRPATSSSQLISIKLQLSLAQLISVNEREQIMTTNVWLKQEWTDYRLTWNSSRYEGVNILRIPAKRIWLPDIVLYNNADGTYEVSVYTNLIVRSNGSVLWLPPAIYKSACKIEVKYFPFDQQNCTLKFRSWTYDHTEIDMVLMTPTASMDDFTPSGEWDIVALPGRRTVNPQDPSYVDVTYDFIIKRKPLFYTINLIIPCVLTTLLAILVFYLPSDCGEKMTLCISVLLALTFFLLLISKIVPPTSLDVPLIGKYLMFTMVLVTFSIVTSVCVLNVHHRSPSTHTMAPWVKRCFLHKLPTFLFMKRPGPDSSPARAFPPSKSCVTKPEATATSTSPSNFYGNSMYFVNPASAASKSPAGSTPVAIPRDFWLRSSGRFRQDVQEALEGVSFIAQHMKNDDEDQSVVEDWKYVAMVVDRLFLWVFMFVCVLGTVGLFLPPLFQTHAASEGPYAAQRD
T2 sequence (P36544 23-502): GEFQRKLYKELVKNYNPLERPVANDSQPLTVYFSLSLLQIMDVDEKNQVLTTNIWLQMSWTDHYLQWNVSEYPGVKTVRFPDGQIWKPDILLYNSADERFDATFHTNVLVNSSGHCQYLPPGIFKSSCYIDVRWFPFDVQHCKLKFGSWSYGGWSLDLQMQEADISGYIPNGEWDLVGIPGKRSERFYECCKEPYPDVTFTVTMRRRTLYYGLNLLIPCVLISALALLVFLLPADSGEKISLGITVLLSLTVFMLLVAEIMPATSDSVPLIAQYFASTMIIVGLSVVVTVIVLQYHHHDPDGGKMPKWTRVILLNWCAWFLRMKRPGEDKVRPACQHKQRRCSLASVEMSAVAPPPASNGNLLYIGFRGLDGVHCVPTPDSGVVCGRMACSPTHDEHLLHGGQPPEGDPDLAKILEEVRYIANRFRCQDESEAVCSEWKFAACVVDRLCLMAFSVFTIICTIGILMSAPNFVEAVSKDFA
T3 sequence (P43681 29-627 limits assumed): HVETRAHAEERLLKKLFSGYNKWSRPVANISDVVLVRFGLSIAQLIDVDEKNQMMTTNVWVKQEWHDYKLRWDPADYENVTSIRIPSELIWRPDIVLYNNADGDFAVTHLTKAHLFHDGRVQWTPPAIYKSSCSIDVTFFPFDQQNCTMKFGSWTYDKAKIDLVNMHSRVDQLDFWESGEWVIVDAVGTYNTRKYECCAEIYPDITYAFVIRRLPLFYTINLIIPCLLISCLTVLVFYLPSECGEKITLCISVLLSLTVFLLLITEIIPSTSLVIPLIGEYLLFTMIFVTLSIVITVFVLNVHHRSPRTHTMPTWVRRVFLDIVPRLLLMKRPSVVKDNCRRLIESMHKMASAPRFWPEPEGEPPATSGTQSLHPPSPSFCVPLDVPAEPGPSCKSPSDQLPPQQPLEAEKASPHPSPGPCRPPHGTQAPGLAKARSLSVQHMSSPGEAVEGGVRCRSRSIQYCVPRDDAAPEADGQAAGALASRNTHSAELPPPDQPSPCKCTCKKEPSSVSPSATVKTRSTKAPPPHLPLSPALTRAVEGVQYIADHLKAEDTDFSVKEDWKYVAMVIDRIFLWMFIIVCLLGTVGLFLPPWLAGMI
T3 sequence (P17787 26-502): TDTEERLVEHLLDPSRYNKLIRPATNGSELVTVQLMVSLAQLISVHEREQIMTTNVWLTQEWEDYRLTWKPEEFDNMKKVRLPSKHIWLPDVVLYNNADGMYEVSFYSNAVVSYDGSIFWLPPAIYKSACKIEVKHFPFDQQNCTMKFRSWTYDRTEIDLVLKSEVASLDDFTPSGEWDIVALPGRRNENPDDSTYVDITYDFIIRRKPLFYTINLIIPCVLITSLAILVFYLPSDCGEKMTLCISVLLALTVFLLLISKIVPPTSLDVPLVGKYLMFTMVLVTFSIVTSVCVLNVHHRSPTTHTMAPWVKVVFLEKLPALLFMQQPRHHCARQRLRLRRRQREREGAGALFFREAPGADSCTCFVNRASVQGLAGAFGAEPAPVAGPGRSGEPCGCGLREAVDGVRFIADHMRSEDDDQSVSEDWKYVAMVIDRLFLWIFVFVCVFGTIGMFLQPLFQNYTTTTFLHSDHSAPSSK

C1=CCC(c2cccnc2)NC1 (racemic) [Anatabine, anatabine]
effect on nicotine dose-effect curve ([1]; anatabine 0.32 mg/kg, data for two monkeys): shifts the peak of the dose-effect curve to the right | effect on nicotine dose-effect curve ([1]; anatabine 1.0 mg/kg): flattened the dose-effect curve | food-maintained responding (change with increasing anatabine doses) [1]: no significant effects | food-maintained responding (change with increasing anatabine doses) ([1]; listed as anatabine): not statistically significant | decreases in nicotine-maintained responding versus baseline ([1]; anatabine doses of 1.8 and 3.2 mg/kg IM, P<0.005-0.02): significantly different from baseline | systematic behavioral assessments (sedation or agitation) ([1]; following each treatment session): no evidence of sedation or agitation | nicotine self-administration [1]: dose-dependently reduced | nicotine self-administration ([1]; listed as anatabine): dose-dependently decreased | nicotine-maintained responding [2]: significantly reduced | EC50 (α3/β4 nAChR channel; agonist assay): 14.6 µM | agonist character (α3/β4 nAChR channel; agonist assay): partial agonist | antagonist or PAM effects (α3/β4 nAChR channel; [8]): no antagonist or PAM effects | reversal of precipitated nicotine withdrawal [3]: does not reverse precipitated nicotine withdrawal | effect on nicotine dose-effect curve [4]: flattened the nicotine dose-effect curve | nicotine-maintained responding ([4]; nicotine 0.003 and 0.01 mg/kg/inj): significantly reduced | agonist character (α7 nAChR channel): full, potent agonists | maximum level of activation (α7 nAChR channel): also similar (and similar to ACh) | antagonist or PAM effects (α7 nAChR channel; [8]): no antagonist or PAM effects | agonist character (α4/β2 nAChR channel; agonist assay): full agonist | antagonist or PAM effects (α4/β2 nAChR channel; [8]): no antagonist or PAM effects | rewarding effect [5]: do not find anatabine to be rewarding

CN1CCCC1c1cccnc1 (single isomer, unassigned) [Nicotine, nicotine, reference compound]
Nicotine Binding Constant [6]: 1.0 | food-maintained responding with increasing doses of nicotine ([1]; nicotine 0.001-0.1 mg/kg/inj): did not change | peak of the nicotine dose-effect curve ([1]; nicotine 0.001-0.1 mg/kg/inj, 7 monkeys): 0.0032 mg/kg/inj | agonist character (α3/β4 nAChR channel; agonist assay): full agonist | maximal response of the channel compared with ACh (α3/β4 nAChR channel; agonist assay): approached that of ACh | Nicotine Binding Constant [7]: 1.0 | agonist character (α7 nAChR channel): full, potent agonists | maximum level of activation (α7 nAChR channel): also similar (and similar to ACh)
